Holding throughout (format): physicochemical
Data set [1] can be described thus: Stability upon mechanical force: ball milling. Particulars: XRPD.
Data set [2] can be described thus: Flowability (compressibility index / Carr index). Particulars: criteria of ICH Q4B Annex 13, by compressibility index. As to the method:
The bulk density ρ0 was calculated with the formula “bulk density ρ0=powder mass/volume before tapped”. […] The tapped density pf was calculated with the formula “tapped density ρf=powder mass/volume after tapped”. The degree of compression (c), also known as Compressibility index or Carr index, was calculated based on the measured bulk density and tap density of the sample with the formula c=(ρf-ρ0)/ρf*100%.
The bulk density ρ0 was calculated with the formula “bulk density ρ0=powder mass/volume before tapped”. […] The tapped density pf was calculated with the formula “tapped density ρf=powder mass/volume after tapped”. The degree of compression (c), also known as Compressibility index or Carr index, was calculated based on the measured bulk density and tap density of the sample with the formula c=(pf-ρ0)/ρf*100%.

The nature of data set [3]: Compressibility: tensile strength of compressed tablets. Particulars: 80 mg, Φ6 mm round tooling, 3 kN, after 24 hours at room temperature; T=2H/πDL. How it is done:
The samples were pressed by the ENERPAC single punch manual tablet press. […] The elastic recovery was completed after storage at room temperature for 24 hours, then the diameter (D) and thickness (L) of the tablet was measured by a caliper, and the hardness (H) was tested with a tablet hardness tester. Tensile strength of the powder was calculated with the following formula: T=2H/πDL. Under a certain force, the greater the tensile strength, the better the compressibility.

A short description of data set [4]: Storage stability of drug substance (HPLC purity and XRPD form). Particulars: for chemical purity during storage: 40° C./75% RH and 60° C./75% RH. As to the method:
Chemical purity and crystalline form were tested by HPLC and XRPD respectively.
Open: the sample was placed into a glass vial, and the vial was covered by aluminum foil with holes.
Sealed with desiccants: the sample was placed into a glass vial, and the vial was covered by aluminum foil with holes, then the vial was sealed into an aluminum foil bag with 1 g of silica gel desiccant.
An appropriate amount of Form CSIV of the present disclosure were stored under different conditions of 25° C./60% RH, 40° C./75% RH and 60° C./75% RH. Chemical purity and crystalline form were test by HPLC and XRPD respectively. […] Form CSIV is stable after storage under 40° C./75% RH condition for at least 6 months, indicating Form CSIV has good stability under accelerated condition. Form CSIV is stable after storage under 60° C./75% RH condition for at least 2 weeks, indicating Form CSIV has good stability under stress condition.

Data set [5] can be described thus: Light stability (HPLC purity and XRPD form). Particulars: for Initial purity: before light exposure; for Purity / Solid form: light 8 k Lux, UV 1.5 w/m^2, 2 weeks; for Purity: HPLC; for Solid form: XRPD. The source says: An appropriate amount of Form CSIV of the present disclosure was placed in a light stability chamber with the following setting values: light: 8 k Lux, UV: 1.5 w/m^2.

Data set [6] is described as follows: Stability upon mechanical force: tableting under different pressures. Particulars: XRPD. As to the method:
An appropriate amount of Form CSII was compressed into tablets under different pressures with suitable tableting die. Crystalline form before and after tableting were tested by XRPD.
An appropriate amount of Form CSIII was compressed into tablets under different pressures with suitable tableting die. Crystalline form before and after tableting were tested by XRPD.

The nature of data set [7]: Crystalline form stability in the formulation process. Particulars: dry granulation simulation 5 ± 1 kN, blending, capsule filling; XRPD.
Data set [8] can be described thus: Hygroscopicity by dynamic vapor sorption (DVS). Particulars: 25° C., cycle 0% RH-95% RH-0% RH, about 10 mg. As to the method:
DVS data in the present disclosure were measured via an SMS (Surface Measurement Systems Ltd.) intrinsic DVS instrument. The instrument control software is DVS-Intrinsic control software. Typical Parameters for DVS test are as follows: • Temperature: 25° C. • Gas and flow rate: N2, 200 mL/min • RH range: 0% RH to 95% RH
The mass change at each relative humidity were recorded in a cycle of 0% RH-95% RH-0% RH.

The nature of data set [9]: Solubility in organic solvents, step-wise solvent addition. Particulars: organic solvent or mixture, thermodynamic from solid; Ethyl acetate; room temperature; as mass of Compound I. How it is done: (§1) The weight of solid (m), the undissolved volume (v1) and the dissolved volume (v2) were recorded respectively.
as §1

Setting [10] is: 5 minutes at a vibration speed of 500 rpm.
Setting [11] is: 25° C./60% RH, long-term condition.
The mark [12] stands for this setting: 25° C./60% RH, sealed with desiccants, 6 months.
Where [13] appears, read: 40° C./75% RH, accelerated condition.
The mark [14] stands for this setting: 40° C./75% RH, sealed with desiccants, 6 months.
Setting [15] is: 60° C./75% RH, sealed with desiccants, 2 weeks.
[16] abbreviates: 60° C./75% RH, stress condition.
Setting [17] is: 25° C./60% RH, sealed with desiccants, 9 months.

The structures appear in SMILES notation. Entries after “also recorded” stand apart in the source; their conditions may differ.

On to `CN(C)CC1CCOC1(c1ccccc1)c1ccccc1.CN(C)CC1CCOC1(c1ccccc1)c1ccccc1.Cl.Cl.O=C(O)CC(O)C(=O)O` (racemic) [Form CSIV], for which the “form change after ball milling” value in [1] (setting [10]) was “no form change”. Also, the Flowability result in data set [2] is reported as “Excellent (≤10)”. For the same compound, the Tensile strength in data set [3] came out at 0.705 MPa. In addition, the “time for which the drug substance is stable (crystalline state unchanged)” value (from here on “time … (crystalline state unchanged)”) in data set [4] (setting [11]) was “at least 6 months”; in data set [4] (setting [13]), “at least 6 months”; in data set [4] (setting [16]), “at least 2 weeks”. Moreover, the Purity in data set [4] (setting [12]) is recorded as 99.92%; in data set [4] (setting [14]), 99.93%; in [4] (setting [15]), 99.98%; in [4] (Initial) it was 99.95%; in [5], 99.92%. For the same compound, the Solid form result in data set [4] (setting [12]) was “Form CSIV”; in [4] (setting [14]), “Form CSIV”; in data set [4] (setting [15]) it was “Form CSIV”; in [4] (Initial), “Form CSIV”; in data set [5] it was “remains unchanged; also recorded: Form CSIV”. The “chemical purity during storage” value in data set [4] is recorded as “above 99.9%”. The Initial purity in [5] turned out to be 99.92%.
With `CN(C)CC1CCOC1(c1ccccc1)c1ccccc1.Cl.O=C(O)CC(O)(CC(=O)O)C(=O)O` (centres unmarked) [Form CSIII], in data set [1] (vibration speed of 300 rpm), the “form change after ball milling” value is recorded as “no form change”. Also, the Flowability entry in [2] is listed as “Fair (16-20)”. In [3], the Tensile strength is given as 0.707 MPa. For the same compound, the “time … (crystalline state unchanged)” value in [4] (setting [11]) is recorded as “at least 9 months”; in data set [4] (setting [13]), “at least 3 months”; in data set [4] (setting [16]), “at least 2 month”. Further, the Purity in [4] (25° C./60% RH, open, 9 months) came out at 99.91%; in [4] (setting [17]), 99.92%; in data set [4] (40° C./75% RH, sealed with desiccants, 3 months), 99.91%; in data set [4] (60° C./75% RH, sealed with desiccants, 2 months), 99.86%; in data set [4] (Initial) it was 99.86%; in [5] it was 99.76%. In addition, in data set [4], the “chemical purity during storage” value is “above 99%”. In [5], this compound yielded an Initial purity of 99.83%. Besides, the Solid form result in [5] is on record as “remains unchanged; also recorded: Form CSIII”. The “Crystalline form after tableting” value in data set [6] (Pressure 5 kN), in data set [6] (Pressure 10 kN) and in [6] (Pressure 20 kN) was “Form CSIII” in each case. The “crystalline form before and after the formulation process” value in [7] was “stable before and after the formulation process”.
Regarding `CN(C)CC1CCOC1(c1ccccc1)c1ccccc1.CN(C)CC1CCOC1(c1ccccc1)c1ccccc1.Cl.Cl.O=C(O)C(O)C(O)C(=O)O` (centres unmarked) [Form CSII], in data set [1] (setting [10]), the “form change after ball milling” value is reported as “no form change”. The Tensile strength in [3] came out at 0.705 MPa. Also, the “time … (crystalline state unchanged)” value in data set [4] (setting [11]) is “at least 9 months”; in [4] (setting [13]) it was “at least 6 months”. Further, the Purity in data set [4] (25° C./60% RH, open, 9 months) amounted to 99.90%; in data set [4] (setting [17]), 99.95%; in data set [4] (setting [14]) it was 99.90%; in data set [4] (60° C./75% RH, sealed with desiccants, 1 month) it was 99.94%; in data set [4] (Initial), 99.96%; in data set [5] it was 99.97%. In data set [4], the “chemical purity during storage” value was “above 99.9%”. The Initial purity in [5] amounted to 99.97%. In data set [5], the Solid form result is “remains unchanged; also recorded: Form CSII”. In addition, the “Crystalline form after tableting” value in [6] (Pressure 5 kN), in [6] (Pressure 10 kN) and in [6] (Pressure 20 kN) was “Form CSII” in each case. For the same compound, the “crystalline form before and after the formulation process” value in data set [7] was “stable before and after the formulation process”. Further, in data set [8], the “Mass increase under 70% RH” value turned out to be 0.24%.
As usually defined, the solubility is the dissolved amount per volume that the medium holds. For the compound `CN(C)CC1CCOC1(c1ccccc1)c1ccccc1` (centres unmarked) [Form I in the prior art, tetrahydro-N,N-dimethyl-2,2-diphenyl-3-furanmethanamine, reference compound], the solubility in data set [9] was under 1500 µg/mL. In addition, the Flowability result in [2] is recorded as “Poor”. The compound also showed a Tensile strength in data set [3] of 0.552 MPa. Also, the “Mass increase under 70% RH” value in [8] was 0.54%.

The values are drawn from US20250042866A1, “CRYSTAL FORM OF BLARCAMESINE HYDROCHLORIDE, METHOD FOR PREPARING SAME, AND USE THEROF” (CRYSTAL PHARMACEUTICAL (SUZHOU) CO., LTD., priority 2022, published 2025).
